Measurements as given in patent US8791107B2, “N-substituted oxazinopteridines and oxazinopteridinones” (Takeda Pharmaceutical Company Limited, priority 2011, dated 2014).

target: T1, PI3Kδ (Homo sapiens, UniProt O00329); assay: PI3Kδ inhibition, modified PIK3CD Adapta TR-FRET assay; type: biochemical; settings: recombinant GST-tagged full length PIK3CD co-expressed with PIK3R1 (p85α); 2 μM ATP, 50 μM PIP2; read-out: PI3Kδ Inhibition (pIC50) (converted)
T1 construct: The protein is full length and co-expressed with untagged PIK3R1; GST; purchased Invitrogen PV5274
T1 sequence (O00329 whole entry): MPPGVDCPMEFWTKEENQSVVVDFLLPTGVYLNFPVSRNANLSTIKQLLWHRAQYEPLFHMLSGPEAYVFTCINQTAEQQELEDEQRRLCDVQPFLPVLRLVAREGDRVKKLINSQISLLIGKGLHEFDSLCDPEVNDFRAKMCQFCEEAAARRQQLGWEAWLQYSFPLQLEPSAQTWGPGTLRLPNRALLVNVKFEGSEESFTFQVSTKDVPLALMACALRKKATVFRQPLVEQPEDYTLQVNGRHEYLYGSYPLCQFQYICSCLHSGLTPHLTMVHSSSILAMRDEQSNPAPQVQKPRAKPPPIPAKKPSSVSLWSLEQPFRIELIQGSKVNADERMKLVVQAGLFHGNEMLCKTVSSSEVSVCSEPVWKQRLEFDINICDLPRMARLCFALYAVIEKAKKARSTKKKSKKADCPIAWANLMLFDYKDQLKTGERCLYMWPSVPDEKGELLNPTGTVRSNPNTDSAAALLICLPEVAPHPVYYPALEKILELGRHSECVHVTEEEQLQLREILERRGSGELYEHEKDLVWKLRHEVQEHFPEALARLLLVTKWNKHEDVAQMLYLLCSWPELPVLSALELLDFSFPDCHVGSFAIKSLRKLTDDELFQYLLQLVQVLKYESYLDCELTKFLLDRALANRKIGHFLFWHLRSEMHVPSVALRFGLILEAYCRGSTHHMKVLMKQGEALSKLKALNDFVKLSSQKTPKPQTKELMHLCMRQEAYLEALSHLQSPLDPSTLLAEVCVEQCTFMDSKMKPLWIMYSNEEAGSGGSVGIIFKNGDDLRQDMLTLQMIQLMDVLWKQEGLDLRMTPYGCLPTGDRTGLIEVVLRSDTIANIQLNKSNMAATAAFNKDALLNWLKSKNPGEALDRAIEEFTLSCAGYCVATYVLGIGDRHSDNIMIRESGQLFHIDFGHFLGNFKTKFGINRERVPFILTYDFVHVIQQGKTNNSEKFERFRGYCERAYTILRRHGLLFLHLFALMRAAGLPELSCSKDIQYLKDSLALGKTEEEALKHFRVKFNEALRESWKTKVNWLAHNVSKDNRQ
T1 sequence (P27986 whole entry partner): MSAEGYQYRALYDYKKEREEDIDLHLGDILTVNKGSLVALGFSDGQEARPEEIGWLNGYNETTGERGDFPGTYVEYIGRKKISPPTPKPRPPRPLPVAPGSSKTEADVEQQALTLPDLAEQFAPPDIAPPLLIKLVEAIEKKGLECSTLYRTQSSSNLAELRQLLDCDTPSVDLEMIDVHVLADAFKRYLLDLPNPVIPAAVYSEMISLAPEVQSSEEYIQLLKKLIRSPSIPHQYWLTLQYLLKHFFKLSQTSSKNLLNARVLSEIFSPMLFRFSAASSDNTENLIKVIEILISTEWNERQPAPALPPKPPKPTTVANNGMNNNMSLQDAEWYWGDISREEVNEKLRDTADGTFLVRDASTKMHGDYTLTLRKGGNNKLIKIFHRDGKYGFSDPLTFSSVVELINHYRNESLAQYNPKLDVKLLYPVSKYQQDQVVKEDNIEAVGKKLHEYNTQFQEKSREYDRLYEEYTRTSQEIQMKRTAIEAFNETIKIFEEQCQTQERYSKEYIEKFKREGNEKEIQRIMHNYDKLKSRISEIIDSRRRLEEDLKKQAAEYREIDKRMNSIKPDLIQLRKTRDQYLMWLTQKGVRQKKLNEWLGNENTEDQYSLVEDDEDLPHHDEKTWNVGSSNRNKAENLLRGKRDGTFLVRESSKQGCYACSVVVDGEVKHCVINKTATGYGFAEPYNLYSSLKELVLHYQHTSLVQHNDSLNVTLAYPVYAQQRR
Method in brief: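 Inhibition was derived from % conversion against positive and negative controls, with ADP read by Adapta Eu-antibody/tracer TR-FRET. Room-temperature reactions used GST-PIK3CD/p85α in HEPES pH 7.5 buffer (MgCl2, EGTA, NaCl, CHAPS, fresh DTT), 1% DMSO final and 12 concentrations. They were initiated by adding 2 μM ATP/50 μM PIP2 solution.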

Row | SMILES | IC50 [nM]
1 | O=C1C2COCCN2c2nc(-c3cccc4[nH]ccc34)ncc2N1Cc1ccccc1 (centres unmarked) [Example 145, 5-benzyl-2-(1H-indol-4-yl)-6a,7,9,10-tetrahydro-[1,4]oxazino[3,4-h]pteridin-6(5H)-one] | 25.1
2 | COC(=O)CCCN1C[C@@H]2COCCN2c2nc(-c3cccc4[nH]ccc34)ncc21 [Example 195, (R)-methyl 4-(2-(1H-indol-4-yl)-6a,7,9,10-tetrahydro-[1,4]oxazino[3,4-h]pteridin-5(6H)-yl)butanoate] | 3.16
3 | Clc1cccc2c(-c3ncc4c(n3)N3CCOCC3CN4)c[nH]c12 (centres unmarked) [Example 11, 2-(7-chloro-1H-indol-3-yl)-5,6,6a,7,9,10-hexahydro-[1,4]oxazino[3,4-h]pteridine] | > 10000
4 | CC(C)(O)CCCN1C[C@@H]2COCCN2c2nc(-c3cccc4[nH]ccc34)ncc21 [Example 227, (R)-5-(2-(1H-indol-4-yl)-6a,7,9,10-tetrahydro-[1,4]oxazino[3,4-h]pteridin-5(6H)-yl)-2-methylpentan-2-ol] | 15.8
5 | CS(=O)(=O)c1cccc(N2C[C@@H]3COCCN3c3nc(-c4cccc5[nH]ccc45)ncc32)c1 [Example 191, (R)-2-(1H-indol-4-yl)-5-(3-(methylsulfonyl)phenyl)-5,6,6a,7,9,10-hexahydro-[1,4]oxazino[3,4-h]pteridine] | 3.16
6 | O=C1Nc2cnc(-c3cccc4[nH]ccc34)nc2N2CCOC[C@H]12 (single isomer, unassigned) [Example 149] | 200
7 | CS(=O)(=O)c1ccc(CN2C(=O)C3COCCN3c3nc(-c4cnc5cc[nH]c5c4)ncc32)cc1 (centres unmarked) [Example 121, 5-(4-(methylsulfonyl)benzyl)-2-(1H-pyrrolo[3,2-b]pyridin-6-yl)-6a,7,9,10-tetrahydro-[1,4]oxazino[3,4-h]pteridin-6(5H)-one] | 31.6
8 | O=C1Nc2cnc(-c3cccc4c3OCO4)nc2N2CCOCC12 (centres unmarked) [Example 151, 2-(benzo[d][1,3]dioxol-4-yl)-6a,7,9,10-tetrahydro-[1,4]oxazino[3,4-h]pteridin-6(5H)-one] | 5010
